In US11000033B2, “Ketone or oxime compound, and herbicide” (NISSAN CHEMICAL CORPORATION, priority 2014, dated 2021):

Columns and labels:
Assay type in all cases: in vivo
Avena fatua = experiment: Test Example 4: herbicidal effect by soil treatment (symbol I); details: application herbicide amount 320 g/ha
In short: (§1)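 Seeds were sown in sterilized diluvial soil, covered with about 1.5 cm of soil, and the soil surface was sprayed with a water-diluted emulsion of the compound at a predetermined rate. Plants grew in a greenhouse at 25° C. to 30° C.; effects were scored visually 3 weeks after application.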

beet [1] = experiment: Test Example 4: effect on crop by soil treatment (symbol f); details: application herbicide amount 320 g/ha
In short: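 Soil-treatment setup: crop and weed seeds were spot-sown into sterilized diluvial soil, then buried beneath approximately 1.5 cm of it, and the boxes were housed in a 25–30° C. greenhouse.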

[2] = tested on: Echinochloa crus-galli var. crus-galli; experiment: Test Example 3: herbicidal effect by foliage application, Wagner pot (symbol H); details: application herbicide amount 320 g/ha
In short: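 Plants sown in submerged alluvial soil (water depth 0.1–0.5 cm) in a 25–30 °C greenhouse and grown 14 days. An emulsion of the compound diluted in water to a set herbicide amount was sprayed uniformly on foliage. Effect on each plant scored 3 weeks after application.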

[3] = tested on: Echinochloa oryzacola Vasing.; experiment: Test Example 2: herbicidal activity, application during weed generation in submerged conditions (symbol A); details: Table 23; application herbicide amount 320 g/ha; grade 0-5 by criteria of Test Example 1
In short: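 Seeds sown in flooded alluvial soil (4 cm water) were grown in a 25-30° C greenhouse. At the one- to two-leaf stage, diluted emulsion of compound was applied to the water surface at a predetermined rate. Effect was scored 3 weeks later.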

Abutilon theophrasti [4] = experiment: Test Example 4: herbicidal effect by soil treatment (symbol M); details: application herbicide amount 320 g/ha
In short: as §1

Apera spica-venti = experiment: Test Example 5: herbicidal effect by foliage application, plastic box (symbol L); details: 320 g/ha, 3 weeks after application
In short: (§2)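 Emulsion formulation, diluted with water to the intended rate, was applied uniformly to leaves by small sprayer. Recipients were 14-day greenhouse-grown seedlings (25° C. to 30° C.). Assessment followed at 3 weeks.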

Abutilon theophrasti [5] = experiment: Test Example 5: herbicidal effect by foliage application, plastic box (symbol M); details: 320 g/ha, 3 weeks after application
In short: as §2

Digitaria ciliaris [6] = experiment: Test Example 4: herbicidal effect by soil treatment (symbol F); details: application herbicide amount 320 g/ha
In short: as §1

Digitaria ciliaris [7] = experiment: Test Example 5: herbicidal effect by foliage application, plastic box (symbol F); details: 320 g/ha, 3 weeks after application
In short: as §2

Veronica persica = experiment: Test Example 5: herbicidal effect by foliage application, plastic box (symbol R); details: 320 g/ha, 3 weeks after application
In short: as §2

beet [8] = experiment: Test Example 5: effect on crop by foliage application, plastic box (symbol f); details: 320 g/ha, 3 weeks after application
In short: (§3)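 Crop and weed seeds sown in spots in sterilized diluvial soil in plastic boxes and covered with about 1.5 cm soil. Plants raised in a greenhouse at 25° C. to 30° C. for foliar application.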

soybean = experiment: Test Example 5: effect on crop by foliage application, plastic box (symbol d); details: 320 g/ha, 3 weeks after application
In short: as §3

rice plant = experiment: Test Example 5: effect on crop by foliage application, plastic box (symbol b); details: 320 g/ha, 3 weeks after application
In short: as §3

Amaranthus retroflexus = experiment: Test Example 5: herbicidal effect by foliage application, plastic box (symbol N); details: 320 g/ha, 3 weeks after application
In short: as §2

Alopecurus myosuroides = experiment: Test Example 4: herbicidal effect by soil treatment (symbol J); details: application herbicide amount 320 g/ha
In short: as §1

Compound | I (Avena fatua) herbicidal effect grade (Avena fatua) | f (beet) effect on crop grade (beet [1]) | herbicidal effect on H (Echinochloa crus-galli var. crus-galli), grade 0-5 [2] | Herbicidal effect grade, A: Echinochloa oryzacola Vasing. [3] | M (Abutilon theophrasti) herbicidal effect grade (Abutilon theophrasti [4]) | L: Apera spica-venti, herbicidal effect grade (Apera spica-venti) | M: Abutilon theophrasti, herbicidal effect grade (Abutilon theophrasti [5]) | F (Digitaria ciliaris) herbicidal effect grade (Digitaria ciliaris [6]) | F: Digitaria ciliaris, herbicidal effect grade (Digitaria ciliaris [7]) | R: Veronica persica, herbicidal effect grade (Veronica persica) | f: beet, effect on crop grade (beet [8]) | d: soybean, effect on crop grade (soybean) | b: directly sowed rice plant, effect on crop grade (rice plant) | N: Amaranthus retroflexus, herbicidal effect grade (Amaranthus retroflexus) | J (Alopecurus myosuroides) herbicidal effect grade (Alopecurus myosuroides)
CON=C(CC1CC(O)=C(c2c(C)cc(C)cc2C)C1=O)c1ccccn1 (stereo not drawn) [1-045] | 0 (Herbicidal ratio of 5% or lower (almost no effect)) | 0 (Herbicidal ratio of 5% or lower (almost no effect)) | 5 (Herbicidal ratio of 90% or more (almost completely withered)) | 3 (Herbicidal ratio of 40% or higher and lower than 70%) | 0 (Herbicidal ratio of 5% or lower (almost no effect)) | 5 (Herbicidal ratio of 90% or more (almost completely withered)) | 0 (Herbicidal ratio of 5% or lower (almost no effect)) | 0 (Herbicidal ratio of 5% or lower (almost no effect)) | 4 (Herbicidal ratio of 70% or higher and lower than 90%) | 0 (Herbicidal ratio of 5% or lower (almost no effect)) | 0 (Herbicidal ratio of 5% or lower (almost no effect)) | 1 (Herbicidal ratio of 5% or higher and lower than 20%) | 5 (Herbicidal ratio of 90% or more (almost completely withered)) | 0 (Herbicidal ratio of 5% or lower (almost no effect)) | 0 (Herbicidal ratio of 5% or lower (almost no effect))
CON=C(CC1CC(O)=C(c2c(C)cc(C)cc2C)C1=O)C1CC1 (stereo not drawn) [1-046] | 5 (Herbicidal ratio of 90% or more (almost completely withered)) | 0 (Herbicidal ratio of 5% or lower (almost no effect)) | 5 (Herbicidal ratio of 90% or more (almost completely withered)) | 5 (Herbicidal ratio of 90% or more (almost completely withered)) | 4 (Herbicidal ratio of 70% or higher and lower than 90%) | 5 (Herbicidal ratio of 90% or more (almost completely withered)) | 3 (Herbicidal ratio of 40% or higher and lower than 70%) | 5 (Herbicidal ratio of 90% or more (almost completely withered)) | 4 (Herbicidal ratio of 70% or higher and lower than 90%) | 4 (Herbicidal ratio of 70% or higher and lower than 90%) | 0 (Herbicidal ratio of 5% or lower (almost no effect)) | 3 (Herbicidal ratio of 40% or higher and lower than 70%) | 5 (Herbicidal ratio of 90% or more (almost completely withered)) | 2 (Herbicidal ratio of 20% or higher and lower than 40%) | 5 (Herbicidal ratio of 90% or more (almost completely withered))
CON=C(C)C(c1ccc(F)cc1)C1CC(O)=C(c2c(C)cc(C)cc2C)C1=O (stereo not drawn) [1-049] | 0 (Herbicidal ratio of 5% or lower (almost no effect)) | 0 (Herbicidal ratio of 5% or lower (almost no effect)) | 0 (Herbicidal ratio of 5% or lower (almost no effect)) | 0 (Herbicidal ratio of 5% or lower (almost no effect)) | 0 (Herbicidal ratio of 5% or lower (almost no effect)) | 0 (Herbicidal ratio of 5% or lower (almost no effect)) | 0 (Herbicidal ratio of 5% or lower (almost no effect)) | 0 (Herbicidal ratio of 5% or lower (almost no effect)) | 0 (Herbicidal ratio of 5% or lower (almost no effect)) | 0 (Herbicidal ratio of 5% or lower (almost no effect)) | 0 (Herbicidal ratio of 5% or lower (almost no effect)) | 0 (Herbicidal ratio of 5% or lower (almost no effect)) | 0 (Herbicidal ratio of 5% or lower (almost no effect)) | 0 (Herbicidal ratio of 5% or lower (almost no effect)) | 0 (Herbicidal ratio of 5% or lower (almost no effect))
CON=CCC1CC(O)=C(c2c(C)cc(C)cc2C)C1=O (stereo not drawn) [1-050] | 0 (Herbicidal ratio of 5% or lower (almost no effect)) | 0 (Herbicidal ratio of 5% or lower (almost no effect)) | 5 (Herbicidal ratio of 90% or more (almost completely withered)) | 3 (Herbicidal ratio of 40% or higher and lower than 70%) | 1 (Herbicidal ratio of 5% or higher and lower than 20%) | 3 (Herbicidal ratio of 40% or higher and lower than 70%) | 3 (Herbicidal ratio of 40% or higher and lower than 70%) | 5 (Herbicidal ratio of 90% or more (almost completely withered)) | 3 (Herbicidal ratio of 40% or higher and lower than 70%) | 0 (Herbicidal ratio of 5% or lower (almost no effect)) | 0 (Herbicidal ratio of 5% or lower (almost no effect)) | 0 (Herbicidal ratio of 5% or lower (almost no effect)) | 5 (Herbicidal ratio of 90% or more (almost completely withered)) | 0 (Herbicidal ratio of 5% or lower (almost no effect)) | 0 (Herbicidal ratio of 5% or lower (almost no effect))
CON=C(C)CC1CC(OC(=O)C(C)(C)Oc2ccc(Cl)cc2)=C(c2c(C)cc(C)cc2C)C1=O (stereo not drawn) [1-051] | 3 (Herbicidal ratio of 40% or higher and lower than 70%) | 0 (Herbicidal ratio of 5% or lower (almost no effect)) | 5 (Herbicidal ratio of 90% or more (almost completely withered)) | 5 (Herbicidal ratio of 90% or more (almost completely withered)) | 5 (Herbicidal ratio of 90% or more (almost completely withered)) | 5 (Herbicidal ratio of 90% or more (almost completely withered)) | 4 (Herbicidal ratio of 70% or higher and lower than 90%) | 5 (Herbicidal ratio of 90% or more (almost completely withered)) | 5 (Herbicidal ratio of 90% or more (almost completely withered)) | 0 (Herbicidal ratio of 5% or lower (almost no effect)) | 0 (Herbicidal ratio of 5% or lower (almost no effect)) | 4 (Herbicidal ratio of 70% or higher and lower than 90%) | 5 (Herbicidal ratio of 90% or more (almost completely withered)) | 1 (Herbicidal ratio of 5% or higher and lower than 20%) | 5 (Herbicidal ratio of 90% or more (almost completely withered))
